According to patent US20060100105A1, “Agents containing carboxylic acid and the use of the same in plant cultivation” (priority 2002, published 2006):

Test system: Winter oilseed rape (cv. Pronto)
Test: Shoot elongation in winter oilseed rape
Assay type: in vivo
Conditions: active ingredient alone
Procedure: The tank mixers employed in Example 1 are prepared by mixing an emulsion concentrate with a metconazole content of 90 g/l and an aqueous concentrate with mepiquat chloride content of 600 g/l using a magnetic stirrer (experiment T1).
Winter oilseed rape (cv. Pronto) was sown in autumn and approximately one month later treated as specified in Table 3. Shoot elongation and root development were assessed a few weeks later. The elongation results are compiled in Table 3.

SMILES | shortening effect (in words)
CC1(C)CCC(Cc2ccc(Cl)cc2)C1(O)Cn1cncn1 (centres unmarked) [Metconazole, metconazole] | very pronounced
C[N+]1(C)CCCCC1.[Cl-] [mepiquat-chloride, N,N-dimethylpiperidinium chloride] | only results in some degree of shortening at scoring date 2
